Data taken from PubChem BioAssay AID248 (DTP/NCI, 2004).
“And” between values parts separate entries of the source, which are not always exact repeats. Identical values can stand only once. Toxic doses and inconclusive results are not listed. No stated cut-off is given here; in the data, active means T/C of 150% or more; inactive means T/C below 125%.

System: L1210 leukemia ip in BDF1 mice, survival T/C
Experiment: NCI In Vivo Anticancer Drug Screen. Data for tumor model L1210 Leukemia (intraperitoneal) in B6D2F1 (BDF1) mice
Details: endpoint: mean survival time, higher = longer survival
Summary of the method: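 Mice bearing the transplanted tumor received compound or vehicle. Survival of the treated group was divided by that of the vehicle-treated control group to give the ratio.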

[1] = dose: 100.0 mg/kg/injection, schedule: Q01DX009 (ip), vehicle: carboxymethylcellulose (CMC)
[2] = dose: 100.0 mg/kg/injection, schedule: Q04DX002 (ip), vehicle: Klucel (hydroxypropylcellulose) (HPC)
[3] = dose: 100.0 mg/kg/injection, schedule: Q04DX003 (ip), vehicle: carboxymethylcellulose (CMC)
[4] = dose: 200.0 mg/kg/injection, schedule: Q01DX009 (ip), vehicle: carboxymethylcellulose (CMC)
[5] = dose: 200.0 mg/kg/injection, schedule: Q04DX002 (ip), vehicle: Klucel (hydroxypropylcellulose) (HPC)
[6] = dose: 200.0 mg/kg/injection, schedule: Q04DX003 (ip), vehicle: carboxymethylcellulose (CMC)
[7] = dose: 400.0 mg/kg/injection, schedule: Q01DX009 (ip), vehicle: carboxymethylcellulose (CMC)
[8] = dose: 400.0 mg/kg/injection, schedule: Q04DX002 (ip), vehicle: Klucel (hydroxypropylcellulose) (HPC)
[9] = dose: 400.0 mg/kg/injection, schedule: Q04DX003 (ip), vehicle: carboxymethylcellulose (CMC)
[10] = dose: 100.0 mg/kg/injection, schedule: Q01DX001 (ip), vehicle: carboxymethylcellulose (CMC)
[11] = dose: 200.0 mg/kg/injection, schedule: Q01DX001 (ip), vehicle: carboxymethylcellulose (CMC)
[12] = dose: 400.0 mg/kg/injection, schedule: Q01DX001 (ip), vehicle: carboxymethylcellulose (CMC)
[13] = dose: 100.0 mg/kg/injection, schedule: Q04DX003 (ip), vehicle: Klucel (hydroxypropylcellulose) (HPC)
[14] = dose: 200.0 mg/kg/injection, schedule: Q04DX003 (ip), vehicle: Klucel (hydroxypropylcellulose) (HPC)
[15] = dose: 400.0 mg/kg/injection, schedule: Q04DX003 (ip), vehicle: Klucel (hydroxypropylcellulose) (HPC)
[16] = dose: 75.0 mg/kg/injection, schedule: Q01DX001 (ip), vehicle: saline
[17] = dose: 50.0 mg/kg/injection, schedule: Q01DX009 (ip), vehicle: saline with Tween-80
[18] = dose: 100.0 mg/kg/injection, schedule: Q01DX009 (ip), vehicle: saline with Tween-80
[19] = dose: 200.0 mg/kg/injection, schedule: Q01DX009 (ip), vehicle: saline with Tween-80
[20] = dose: 100.0 mg/kg/injection, schedule: Q01DX009 (ip), vehicle: Klucel (hydroxypropylcellulose) (HPC)
[21] = dose: 200.0 mg/kg/injection, schedule: Q01DX009 (ip), vehicle: Klucel (hydroxypropylcellulose) (HPC)
[22] = dose: 400.0 mg/kg/injection, schedule: Q01DX009 (ip), vehicle: Klucel (hydroxypropylcellulose) (HPC)

Measured: T/C

CCN(CCNC(=O)Nc1ccc(OC)cc1)c1ccccc1
inactive: [1] 93 % of control and 100 % of control | [2] 103 % of control | dose: 100.0 mg/kg/injection, schedule: Q04DX002 (ip), vehicle: other 94 % of control and 98 % of control | [3] 96 % of control | [4] 93 % of control and 104 % of control | [5] 100 % of control | dose: 200.0 mg/kg/injection, schedule: Q04DX002 (ip), vehicle: other 91 % of control | [6] 100 % of control | [7] 96 % of control and 100 % of control | [8] 107 % of control | dose: 400.0 mg/kg/injection, schedule: Q04DX002 (ip), vehicle: other 102 % of control and 88 % of control | [9] 96 % of control

NC(=O)Nc1ccc2c(c1)Cc1cc([N+](=O)[O-])ccc1-2
inactive: [10] 100 % of control | [11] 105 % of control | [12] 91 % of control

CC(C)CCCC(C)C1CCC2C3CC=C4CC(OC(=O)c5cc([N+](=O)[O-])c(N6CC6)c([N+](=O)[O-])c5)CCC4(C)C3CCC12C (stereo not drawn)
inactive: dose: 50.0 mg/kg/injection, schedule: Q01DX001 (sc), vehicle: steriod suspending solution 110 % of control | dose: 100.0 mg/kg/injection, schedule: Q01DX001 (sc), vehicle: steriod suspending solution 96 % of control | dose: 200.0 mg/kg/injection, schedule: Q01DX001 (sc), vehicle: steriod suspending solution 102 % of control | dose: 400.0 mg/kg/injection, schedule: Q01DX001 (sc), vehicle: steriod suspending solution 96 % of control

CCNc1ccc(F)cc1[N+](=O)[O-]
inactive: dose: 100.0 mg/kg/injection, schedule: Q01DX009 (ip), vehicle: saline sonified 110 % of control | [13] 103 % of control | dose: 200.0 mg/kg/injection, schedule: Q01DX009 (ip), vehicle: saline sonified 102 % of control | [14] 104 % of control | dose: 400.0 mg/kg/injection, schedule: Q01DX009 (ip), vehicle: saline sonified 102 % of control | [15] 97 % of control

CCOc1ccc(NC(=O)c2cc(C(=O)O)c(C(=O)Nc3ccc(OCC)cc3)cc2C(=O)O)cc1
inactive: [2] 109 % of control | [8] 109 % of control

O=C1CC2(C(=O)O)CC3CC2C(O1)C3I (stereo not drawn)
inactive: [1] 86 % of control | [3] 105 % of control | [4] 96 % of control | [6] 97 % of control | [7] 94 % of control | [9] 103 % of control

Clc1ccc(/C=N/N2CCN(/N=C/c3ccc(Cl)c(Cl)c3)CC2)cc1Cl
inactive: dose: 100.0 mg/kg/injection, schedule: Q01DX001 (ip), vehicle: saline 92 % of control | dose: 200.0 mg/kg/injection, schedule: Q01DX001 (ip), vehicle: saline 92 % of control | dose: 400.0 mg/kg/injection, schedule: Q01DX001 (ip), vehicle: saline 92 % of control

CCN1CCCC(Nc2cc(C)nc(/N=C(\N)Nc3ccc(Cl)c(Cl)c3)n2)C1 (stereo not drawn)
inactive: [16] 92 % of control

CC(=O)COCC1CO1 (stereo not drawn)
inactive: [17] 92 % of control | [18] 92 % of control | [19] 100 % of control

CCOC1OC(=O)c2cccc3ccc4cccc1c4c23 (stereo not drawn)
inactive: [2] 90 % of control | [5] 86 % of control | [8] 93 % of control

Cc1cc(C(=O)NN)c(C#N)c(=O)[nH]1
inactive: dose: 100.0 mg/kg/injection, schedule: Q01DX001 (ip), vehicle: other 93 % of control | dose: 200.0 mg/kg/injection, schedule: Q01DX001 (ip), vehicle: other 95 % of control | dose: 400.0 mg/kg/injection, schedule: Q01DX001 (ip), vehicle: other 97 % of control

O=C1CCCCc2c1ccc(O)c2[N+](=O)[O-]
inactive: [17] 88 % of control

Cc1ccc(NC2=CCC(=O)OC2=O)cc1
inactive: dose: 25.0 mg/kg/injection, schedule: Q01DX009 (ip), vehicle: Klucel (hydroxypropylcellulose) (HPC) 93 % of control | dose: 25.0 mg/kg/injection, schedule: Q04DX003 (ip), vehicle: Klucel (hydroxypropylcellulose) (HPC) 100 % of control | dose: 50.0 mg/kg/injection, schedule: Q01DX009 (ip), vehicle: Klucel (hydroxypropylcellulose) (HPC) 88 % of control | dose: 50.0 mg/kg/injection, schedule: Q04DX003 (ip), vehicle: Klucel (hydroxypropylcellulose) (HPC) 105 % of control | [20] 90 % of control | [13] 97 % of control | [21] 97 % of control | [14] 97 % of control | [22] 88 % of control | [15] 92 % of control

CCOC(=O)OCc1ccco1
inactive: [10] 94 % of control | [1] 101 % of control and 103 % of control | dose: 100.0 mg/kg/injection, schedule: Q04DX002 (ip), vehicle: carboxymethylcellulose (CMC) 98 % of control and 100 % of control | [3] 102 % of control | [11] 89 % of control | [4] 97 % of control and 109 % of control | dose: 200.0 mg/kg/injection, schedule: Q04DX002 (ip), vehicle: carboxymethylcellulose (CMC) 98 % of control and 101 % of control | [6] 96 % of control | [12] 110 % of control | dose: 400.0 mg/kg/injection, schedule: Q04DX002 (ip), vehicle: carboxymethylcellulose (CMC) 103 % of control and 106 % of control | [9] 112 % of control

C/C=C1/CN2CCC1CC2C(O)c1ccnc2ccc(O)cc12 (stereo not drawn)
inactive: [16] 101 % of control

Nc1[nH]nc2nc(-c3ccc(Cl)cc3)cnc12
inactive: [17] 104 % of control | [18] 101 % of control | dose: 100.0 mg/kg/injection, schedule: Q04DX003 (ip), vehicle: saline with Tween-80 95 % of control | [19] 98 % of control | dose: 200.0 mg/kg/injection, schedule: Q04DX003 (ip), vehicle: saline with Tween-80 95 % of control

COC1OC(COS(C)(=O)=O)C(O)C(O)C1OS(C)(=O)=O (stereo not drawn)
inactive: [20] 109 % of control | [13] 106 % of control | [21] 95 % of control | [14] 102 % of control | [22] 111 % of control | [15] 102 % of control

Nc1ccc(CCCC(=O)NCc2cccnc2)cc1
inactive: [18] 105 % of control | [19] 94 % of control | dose: 400.0 mg/kg/injection, schedule: Q01DX009 (ip), vehicle: saline with Tween-80 96 % of control
